These results are taken from ChEMBL document CHEMBL3992518, “Peptide Macrocycle Inhibitor of Coagulation Factor XII with Subnanomolar Affinity and High Target Selectivity” (J Med Chem, 2017).

*1 amine or outer side, *2 acyl side, *3 side chain or, on linkers, in order; H or OH if unused. Where a SMILES comes first, the peptide text is derived from it. Bridges are numbered along the chain shown (N, C = ends). [ ]: non-standard residue; d: D form. TATA = O=C(CC[*:1])N1CN(C(=O)CC[*:2])CN(C(=O)CC[*:3])C1; hLys = NCCCCC[C@H](N)C(=O)O

The target of the test is T1, Coagulation factor XII (Homo sapiens, UniProt P00748).
T1 sequence (P00748 whole entry): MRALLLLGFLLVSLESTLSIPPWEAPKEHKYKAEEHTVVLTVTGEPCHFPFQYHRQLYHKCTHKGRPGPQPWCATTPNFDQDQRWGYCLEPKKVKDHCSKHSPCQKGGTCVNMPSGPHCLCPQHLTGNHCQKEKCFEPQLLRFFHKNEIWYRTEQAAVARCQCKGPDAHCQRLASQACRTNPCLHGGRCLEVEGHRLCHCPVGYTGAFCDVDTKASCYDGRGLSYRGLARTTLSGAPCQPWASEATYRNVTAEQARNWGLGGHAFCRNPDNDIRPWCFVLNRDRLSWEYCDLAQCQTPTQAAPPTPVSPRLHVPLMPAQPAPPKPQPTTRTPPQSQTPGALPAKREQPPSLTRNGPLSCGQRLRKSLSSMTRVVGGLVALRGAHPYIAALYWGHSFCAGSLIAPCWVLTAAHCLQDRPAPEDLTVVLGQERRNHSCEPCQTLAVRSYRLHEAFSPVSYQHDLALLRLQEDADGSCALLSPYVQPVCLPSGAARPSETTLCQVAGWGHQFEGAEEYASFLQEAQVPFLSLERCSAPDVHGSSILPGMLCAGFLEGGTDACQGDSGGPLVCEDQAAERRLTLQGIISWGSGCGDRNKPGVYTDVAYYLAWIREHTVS
Nature of the test: Inhibition of human beta factor 12a using fluorogenic substrate Boc-Gln-Gly-Arg-AMC preincubated for 10 mins followed by addition of substrate measured every min for 30 mins.
Regarding `CSCC[C@@H]1NC(=O)[C@H](CCCNC(=N)N)NC(=O)[C@H](Cc2ccccc2)NC(=O)[C@@H](NC(=O)[C@@H](N)CCCNC(=N)N)CSCCC(=O)N2CN3CN(C2)C(=O)CCSC[C@H](NC(=O)[C@@H]2CCCN2C1=O)C(=O)N[C@@H](CCCNC(=N)N)C(=O)N[C@@H](CCC(N)=O)C(=O)N[C@@H](CC(C)C)C(=O)N[C@@H](CCCNC(=N)N)C(=O)N[C@H](C(=O)N[C@@H](CCCNC(=N)N)C(=O)N[C@@H](Cc1c[nH]c2ccccc12)C(=O)O)CSCCC3=O` (H-RCFRMPCRQLRCRW-OH; linker 2-7-12 via TATA), the Ki is over 3000 nM.

In the case of `Cc1ccccc1C[C@@H]1NC(=O)[C@@H](NC(=O)[C@@H](N)CCCNC(=N)N)CSCCC(=O)N2CN3CN(C2)C(=O)CCSC[C@H](NC(=O)[C@@H]2CCCN2C(=O)[C@H](CC(C)C)NC(=O)[C@H](CCCNC(=N)N)NC1=O)C(=O)N[C@@H](CCCNC(=N)N)C(=O)N[C@@H](CCC(N)=O)C(=O)N[C@@H](CC(C)C)C(=O)N[C@@H](CCCNC(=N)N)C(=O)N[C@H](C(=O)N[C@@H](CCCNC(=N)N)C(=O)N[C@@H](Cc1c[nH]c2ccccc12)C(=O)O)CSCCC3=O`, the inhibition constant (Ki) was 40 nM.

Compound `CC(C)C[C@@H]1NC(=O)[C@H](CCC(N)=O)NC(=O)[C@H](CCCNC(=N)N)NC(=O)[C@@H]2CSCCC(=O)N3CN(CN(C3)C(=O)CCSC[C@H](NC(=O)[C@@H](N)CCCNC(=N)N)C(=O)N[C@@H](Cc3ccc(-c4ccccc4)cc3)C(=O)N[C@@H](CCCNC(=N)N)C(=O)N[C@@H](CC(C)C)C(=O)N3CCC[C@H]3C(=O)N2)C(=O)CCSC[C@@H](C(=O)N[C@@H](CCCNC(=N)N)C(=O)N[C@@H](Cc2c[nH]c3ccccc23)C(=O)O)NC(=O)[C@H](CCCNC(=N)N)NC1=O` showed a Ki of over 1000 nM.

The compound `CC(C)C[C@@H]1NC(=O)[C@H](CCC(N)=O)NC(=O)[C@H](CCCNC(=N)N)NC(=O)[C@@H]2CSCCC(=O)N3CN(CN(C3)C(=O)CCSC[C@H](NC(=O)[C@@H](N)CCCNC(=N)N)C(=O)N[C@@H](Cc3ccccc3)C(=O)N[C@@H](CCCNC(=N)N)C(=O)N[C@@H](CC(C)C)C(=O)N[C@@H](CC(=O)O)C(=O)N2)C(=O)CCSC[C@@H](C(=O)N[C@@H](CCCNC(=N)N)C(=O)N[C@@H](Cc2c[nH]c3ccccc23)C(=O)O)NC(=O)[C@H](CCCNC(=N)N)NC1=O` (H-RCFRLDCRQLRCRW-OH; linker 2-7-12 via TATA) showed a Ki of 120 nM.

For `CC(C)C[C@@H]1NC(=O)[C@H](CCC(N)=O)NC(=O)[C@H](CCCNC(=N)N)NC(=O)[C@@H]2CSCCC(=O)N3CN(CN(C3)C(=O)CCSC[C@H](NC(=O)[C@@H](N)CCCNC(=N)N)C(=O)N[C@@H](Cc3ccccc3)C(=O)N[C@@H](CCCNC(=N)N)C(=O)N[C@@H](CC(C)C)C(=O)N3CCC[C@H]3C(=O)N2)C(=O)CCSC[C@@H](C(=O)O)NC(=O)[C@H](CCCNC(=N)N)NC1=O` (H-RCFRLPCRQLRC-OH; linker 2-7-12 via TATA), the Ki turned out to be 9.3 nM.

With `CC(C)C[C@@H]1NC(=O)[C@H](CCC(N)=O)NC(=O)[C@H](CCCNC(=N)N)NC(=O)[C@@H]2CSCCC(=O)N3CN(CN(C3)C(=O)CCSC[C@H](NC(=O)[C@@H](N)CCCNC(=N)N)C(=O)N[C@@H](Cc3csc4ccccc34)C(=O)N[C@@H](CCCNC(=N)N)C(=O)N[C@@H](CC(C)C)C(=O)N3CCC[C@H]3C(=O)N2)C(=O)CCSC[C@@H](C(=O)N[C@@H](CCCNC(=N)N)C(=O)N[C@@H](Cc2c[nH]c3ccccc23)C(=O)O)NC(=O)[C@H](CCCNC(=N)N)NC1=O`, the affinity corresponds to a Ki of 6.8 nM. The Ki values of the last two compounds are within 1.5-fold of each other.

As for `CC(C)C[C@@H]1NC(=O)[C@H](CCCNC(=N)N)NC(=O)[C@H](Cc2ccccc2)NC(=O)[C@@H](NC(=O)[C@@H](N)CCCNC(=N)N)CSCCC(=O)N2CN3CN(C2)C(=O)CCSC[C@H](NC(=O)[C@@H]2CCCN2C1=O)C(=O)N[C@@H](CCCNC(=N)N)C(=O)N[C@@H](CCC(N)=O)C(=O)N[C@@H](C)C(=O)N[C@@H](CCCNC(=N)N)C(=O)N[C@H](C(=O)N[C@@H](CCCNC(=N)N)C(=O)N[C@@H](Cc1c[nH]c2ccccc12)C(=O)O)CSCCC3=O` (H-RCFRLPCRQARCRW-OH; linker 2-7-12 via TATA), the affinity, expressed as Ki, was 1040 nM.

Turning to `CC(C)C[C@@H]1NC(=O)[C@H](CCC(N)=O)NC(=O)[C@H](CCCNC(=N)N)NC(=O)[C@@H]2CSCCC(=O)N3CN(CN(C3)C(=O)CCSC[C@H](NC(=O)[C@@H](N)CCCNC(=N)N)C(=O)N[C@@H](C(C)C)C(=O)N[C@@H](CCCNC(=N)N)C(=O)N[C@@H](CC(C)C)C(=O)N3CCC[C@H]3C(=O)N2)C(=O)CCSC[C@@H](C(=O)N[C@@H](CCCNC(=N)N)C(=O)N[C@@H](Cc2c[nH]c3ccccc23)C(=O)O)NC(=O)[C@H](CCCNC(=N)N)NC1=O` (H-RCVRLPCRQLRCRW-OH; linker 2-7-12 via TATA), the affinity, expressed as Ki, was 160 nM.

In turn, `CC(C)C[C@@H]1NC(=O)[C@H](CCCNC(=N)N)NC(=O)[C@H](Cc2ccccc2)NC(=O)[C@@H](NC(=O)[C@@H](N)CCCNC(=N)N)CSCCC(=O)N2CN3CN(C2)C(=O)CCSC[C@@H](C(=O)N[C@@H](CCCNC(=N)N)C(=O)N[C@@H](Cc2c[nH]c4ccccc24)C(=O)O)NC(=O)[C@H](CCCNC(=N)N)NC(=O)[C@H](CC(C)C)NC(=O)[C@H](CCC(N)=O)NC(=O)[C@H](CCCNC(=N)N)NC(=O)[C@H](CSCCC3=O)NC(=O)[C@H](C)NC1=O` (H-RCFRLACRQLRCRW-OH; linker 2-7-12 via TATA) gave an inhibition constant (Ki) of 19.6 nM.

Consider `CC(C)C[C@@H]1NC(=O)[C@H](CCC(N)=O)NC(=O)[C@H](CCCNC(=N)N)NC(=O)[C@@H]2CSCCC(=O)N3CN(CN(C3)C(=O)CCSC[C@H](NC(=O)[C@@H](N)CCCNC(=N)N)C(=O)N[C@@H](Cc3ccccc3)C(=O)N[C@@H](CCCNC(=N)N)C(=O)N[C@@H](C(C)C)C(=O)N3CCC[C@H]3C(=O)N2)C(=O)CCSC[C@@H](C(=O)N[C@@H](CCCNC(=N)N)C(=O)N[C@@H](Cc2c[nH]c3ccccc23)C(=O)O)NC(=O)[C@H](CCCNC(=N)N)NC1=O` (H-RCFRVPCRQLRCRW-OH; linker 2-7-12 via TATA), for which the affinity, expressed as Ki, was 570 nM.

`Cc1cccc(C[C@@H]2NC(=O)[C@@H](NC(=O)[C@@H](N)CCCNC(=N)N)CSCCC(=O)N3CN4CN(C3)C(=O)CCSC[C@H](NC(=O)[C@@H]3CCCN3C(=O)[C@H](CC(C)C)NC(=O)[C@H](CCCNC(=N)N)NC2=O)C(=O)N[C@@H](CCCNC(=N)N)C(=O)N[C@@H](CCC(N)=O)C(=O)N[C@@H](CC(C)C)C(=O)N[C@@H](CCCNC(=N)N)C(=O)N[C@H](C(=O)N[C@@H](CCCNC(=N)N)C(=O)N[C@@H](Cc2c[nH]c3ccccc23)C(=O)O)CSCCC4=O)c1` registered a Ki of 3.7 nM.

`CC(C)C[C@@H]1NC(=O)[C@H](CCC(N)=O)NC(=O)[C@H](CCCNC(=N)N)NC(=O)[C@@H]2CSCCC(=O)N3CN(CN(C3)C(=O)CCSC[C@H](NC(=O)[C@@H](N)CCCNC(=N)N)C(=O)N[C@@H](Cc3ccccc3)C(=O)N[C@@H](CCCCCN)C(=O)N[C@@H](CC(C)C)C(=O)N3CCC[C@H]3C(=O)N2)C(=O)CCSC[C@@H](C(=O)N[C@@H](CCCNC(=N)N)C(=O)N[C@@H](Cc2c[nH]c3ccccc23)C(=O)O)NC(=O)[C@H](CCCNC(=N)N)NC1=O` (H-RCF[hLys]LPCRQLRCRW-OH; linker 2-7-12 via TATA) gave a Ki of 51 nM.

Regarding `CC(C)C[C@@H]1NC(=O)[C@H](CCC(N)=O)NC(=O)[C@H](CCCNC(=N)N)NC(=O)[C@@H]2CSCCC(=O)N3CN(CN(C3)C(=O)CCSC[C@H](N)C(=O)N[C@@H](Cc3ccccc3)C(=O)N[C@@H](CCCNC(=N)N)C(=O)N[C@@H](CC(C)C)C(=O)N3CCC[C@H]3C(=O)N2)C(=O)CCSC[C@@H](C(=O)N[C@@H](CCCNC(=N)N)C(=O)O)NC(=O)[C@H](CCCNC(=N)N)NC1=O` (H-CFRLPCRQLRCR-OH; linker 1-6-11 via TATA), the affinity corresponds to a Ki of 330 nM.

For `CC(C)C[C@@H]1NC(=O)[C@H](CCC(N)=O)NC(=O)[C@H](CCCNC(=N)N)NC(=O)[C@@H]2CSCCC(=O)N3CN(CN(C3)C(=O)CCSC[C@H](NC(=O)[C@@H](N)CCCNC(=N)N)C(=O)N[C@@H](Cc3ccccc3)C(=O)N[C@@H](CCCCN)C(=O)N[C@@H](CC(C)C)C(=O)N3CCC[C@H]3C(=O)N2)C(=O)CCSC[C@@H](C(=O)N[C@@H](CCCNC(=N)N)C(=O)N[C@@H](Cc2c[nH]c3ccccc23)C(=O)O)NC(=O)[C@H](CCCNC(=N)N)NC1=O` (H-RCFKLPCRQLRCRW-OH; linker 2-7-12 via TATA), affinity was put at a Ki of 111 nM.

`CC[C@H](C)[C@@H]1NC(=O)[C@H](CCC(N)=O)NC(=O)[C@H](CCCNC(=N)N)NC(=O)[C@@H]2CSCCC(=O)N3CN(CN(C3)C(=O)CCSC[C@H](NC(=O)[C@@H](N)CCCNC(=N)N)C(=O)N[C@@H](Cc3ccccc3)C(=O)N[C@@H](CCCNC(=N)N)C(=O)N[C@@H](CC(C)C)C(=O)N3CCC[C@H]3C(=O)N2)C(=O)CCSC[C@@H](C(=O)N[C@@H](CCCNC(=N)N)C(=O)N[C@@H](Cc2c[nH]c3ccccc23)C(=O)O)NC(=O)[C@H](CCCNC(=N)N)NC1=O` (H-RCFRLPCRQIRCRW-OH; linker 2-7-12 via TATA): the affinity, expressed as Ki, was 78 nM.

As for `CC(C)C[C@@H]1NC(=O)[C@H](CCC(N)=O)NC(=O)[C@H](CCCNC(=N)N)NC(=O)[C@@H]2CSCCC(=O)N3CN(CN(C3)C(=O)CCSC[C@H](NC(=O)[C@@H](N)CCCNC(=N)N)C(=O)N[C@@H](Cc3ccccc3)C(=O)N[C@@H](CCCNC(=N)N)C(=O)N[C@@H](CC(C)C)C(=O)N[C@@H](CO)C(=O)N2)C(=O)CCSC[C@@H](C(=O)N[C@@H](CCCNC(=N)N)C(=O)N[C@@H](Cc2c[nH]c3ccccc23)C(=O)O)NC(=O)[C@H](CCCNC(=N)N)NC1=O` (H-RCFRLSCRQLRCRW-OH; linker 2-7-12 via TATA), the Ki worked out at 29.4 nM.

The Ki is the dissociation constant of the complex between target and ligand, obtained from inhibition or displacement. A high value points to weaker binding.
